The source of these data is article PMC11347161, “Sequence diversity of apidaecin-like peptides arresting the terminating ribosome” (Nucleic Acids Research, 2024).

In brackets after ≈: the same amount, converted by molar mass. Residues, ends and D or L forms follow the SMILES beside them. *: point of attachment. Orn(α-tetramethylguanidino) = CN(C)C(=N[C@@H](CCCN)C(=O)*)N(C)C

In the assay the test system is E. coli, BL21 cells. The class given is cell-based. Particulars: for MIC, TSB / MIC, LB / MIC, RPMI/Serum: E. coli BL21, broth microdilution, conducted in triplicate; for MIC, TSB: 33% TSB medium; for MIC, LB: LB medium; for MIC, RPMI/Serum: RPMI/Serum medium (RPMI-1640:MHB:FBS = 100:5:20). On the procedure:
The E. coli strain CA244 (lacZ125(Am), e14-, trpA49(Am), relA1, spoT1) was obtained from Escherichia coli Genetic Stock Center. The E. coli BL21(DE3) electrocompetent cells were from Sigma. The following media and components were implemented for bacteria growth: lysogeny broth (LB), minimal M9 medium, Tryptic Soy Broth (TSB), Roswell Park Memorial Institute medium 1640 (RPMI-1640), Mueller Hinton Broth (MHB), Fetal Bovine Serum (FBS). For various experiments E. coli cells were grown either in LB, in 33% TSB ([21]), in M9 medium supplemented with 1% Glycerol, 1 mM MgSO4, 0.1 mM CaCl2 and 10 μg/ml thiamine, or in RPMI/Serum (RPMI-1640:MHB:FBS = 100:5:20) ([23]).
The minimal inhibitory concentration (MIC) test was performed using the broth microdilution method, adapted from the previously described procedure ([28]). The MIC tests were conducted in triplicate either in LB, 33% TSB or RPMI/Serum media.
In order to quantitatively assess the antimicrobial activity of the synthesized peptides identified by both, the negative and positive selection strategies, we determined their minimal inhibitory concentrations (MICs) for the E. coli BL21 cells in three different media: LB, as a standard laboratory medium, 33% TSB, as a medium in which PrAMPs show increased antibacterial properties ([21]), and in the more therapeutically relevant RPMI/serum media ([23]) (Table 1). […] It appears, therefore, that the positive selection strategy is more prone to identifying biologically active peptides in comparison with the negative selection approaches. Furthermore, it became apparent that some multiple substitutions can even improve the antibacterial properties of the Api-like peptides.

Turning to `CC[C@H](C)[C@H](NC(=O)[C@H](Cc1ccc(O)cc1)NC(=O)[C@@H](NC(=O)[C@@H]1CCCN1C(=O)[C@H](CCCNC(=N)N)NC(=O)[C@H](CC(N)=O)NC(=O)[C@H](CC(N)=O)NC(=O)[C@H](CCCN)N=C(N(C)C)N(C)C)C(C)C)C(=O)N1CCC[C@H]1C(=O)N[C@@H](CCCNC(=N)N)C(=O)N1CCC[C@H]1C(=O)N[C@@H](CCCNC(=N)N)C(=O)N1CCC[C@H]1C(=O)N1CCC[C@H]1C(=O)N[C@@H](Cc1c[nH]cn1)C(=O)N1CCC[C@H]1C(=O)N[C@@H](CCCNC(=N)N)C(=O)N[C@@H](CC(C)C)C(=O)O` [Api 137, reference compound] ({Orn(α-tetramethylguanidino)}-NNRPVYIPRPRPPHPRL-OH; N-terminus and C-terminus assumed), the “MIC, TSB” value came to 0.25 µM (≈ 0.573 µg/mL); the “MIC, LB” value is 4 µM (≈ 9.17 µg/mL); the “MIC, RPMI/Serum” value came to 0.0625 µM (≈ 0.143 µg/mL).

As to `CC(C)C[C@H](NC(=O)[C@H](CCCNC(=N)N)NC(=O)[C@@H]1CCCN1C(=O)[C@H](Cc1c[nH]cn1)NC(=O)[C@H](Cc1ccc(O)cc1)NC(=O)[C@@H]1CCCN1C(=O)[C@H](CCCNC(=N)N)NC(=O)[C@@H]1CCCN1C(=O)[C@@H](NC(=O)[C@H](CS)NC(=O)[C@H](Cc1c[nH]c2ccccc12)NC(=O)[C@H](CCC(N)=O)NC(=O)[C@@H](NC(=O)[C@H](CCCCN)NC(=O)[C@H](CCCNC(=N)N)NC(=O)[C@H](CC(N)=O)NC(=O)[C@H](CC(N)=O)NC(=O)[C@H](CCCN)N=C(N(C)C)N(C)C)C(C)C)C(C)C)C(=O)O` [K5Q7W8C9V10Y14] ({Orn(α-tetramethylguanidino)}-NNRKVQWCVPRPYHPRL-OH; C-terminus assumed), the “MIC, TSB” value was greater than 64 µM; the “MIC, LB” value is greater than 64 µM; the “MIC, RPMI/Serum” value is greater than 64 µM.

Consider `CC(C)C[C@H](NC(=O)[C@@H]1CCCN1C(=O)[C@H](CCC(N)=O)NC(=O)[C@@H]1CCCN1C(=O)[C@H](CC(C)C)NC(=O)[C@H](Cc1ccc(O)cc1)NC(=O)[C@@H](NC(=O)[C@@H]1CCCN1C(=O)[C@H](CCCNC(=N)N)NC(=O)[C@H](CC(N)=O)NC(=O)[C@H](CC(N)=O)NC(=O)[C@H](CCCN)N=C(N(C)C)N(C)C)C(C)C)C(=O)NCC(=O)N1CCC[C@H]1C(=O)NCC(=O)N1CCC[C@H]1C(=O)N[C@@H](CCCNC(=N)N)C(=O)N[C@@H](C)C(=O)O` [L8L12G13G15A18] ({Orn(α-tetramethylguanidino)}-NNRPVYLPQPLGPGPRA-OH; C-terminus assumed), for which the “MIC, TSB” value is greater than 64 µM; the “MIC, LB” value is greater than 64 µM; the “MIC, RPMI/Serum” value was greater than 64 µM.

In the case of `CSCC[C@H](NC(=O)[C@H](CCCNC(=N)N)NC(=O)[C@@H]1CCCN1C(=O)[C@H](Cc1ccc(O)cc1)NC(=O)[C@@H]1CCCN1C(=O)[C@H](Cc1ccccc1)NC(=O)[C@H](Cc1ccc(O)cc1)NC(=O)[C@@H](NC(=O)[C@@H]1CCCN1C(=O)[C@H](CCCNC(=N)N)NC(=O)[C@H](C)NC(=O)[C@H](CC(N)=O)NC(=O)[C@H](CCCN)N=C(N(C)C)N(C)C)C(C)C)C(=O)N1CCC[C@H]1C(=O)N[C@@H](Cc1c[nH]cn1)C(=O)N1CCC[C@H]1C(=O)N[C@@H](CCCNC(=N)N)C(=O)N[C@@H](CC(C)C)C(=O)O` [Peptide A3F8Y10M13] ({Orn(α-tetramethylguanidino)}-NARPVYFPYPRMPHPRL-OH; C-terminus assumed), the “MIC, TSB” value stood at 16 µM (≈ 37.2 µg/mL); the “MIC, LB” value is greater than 64 µM; the “MIC, RPMI/Serum” value stood at 8 µM (≈ 18.6 µg/mL).

Turning to `CC[C@H](C)[C@H](NC(=O)[C@H](Cc1ccc(O)cc1)NC(=O)[C@@H](NC(=O)[C@@H]1CCCN1C(=O)[C@H](CCCNC(=N)N)NC(=O)[C@H](CC(N)=O)NC(=O)[C@H](CC(N)=O)NC(=O)[C@H](CCCN)N=C(N(C)C)N(C)C)C(C)C)C(=O)NCC(=O)N[C@@H](CCC(=O)O)C(=O)N1CCC[C@H]1C(=O)N[C@@H](CCCNC(=N)N)C(=O)N1CCC[C@H]1C(=O)N1CCC[C@H]1C(=O)N[C@@H](CC(N)=O)C(=O)N1CCC[C@H]1C(=O)N[C@@H](CCCNC(=N)N)C(=O)N[C@@H](CC(C)C)C(=O)O` [Peptide G9E10N15] ({Orn(α-tetramethylguanidino)}-NNRPVYIGEPRPPNPRL-OH; C-terminus assumed), the “MIC, TSB” value is greater than 64 µM; the “MIC, LB” value was greater than 64 µM; the “MIC, RPMI/Serum” value is greater than 64 µM.

Take `CC[C@H](C)[C@H](NC(=O)[C@H](Cc1ccc(O)cc1)NC(=O)[C@@H](NC(=O)[C@@H]1CCCN1C(=O)[C@H](CCCNC(=N)N)NC(=O)[C@H](CC(N)=O)NC(=O)[C@H](CCCCN)NC(=O)[C@H](CCCN)N=C(N(C)C)N(C)C)C(C)C)C(=O)N[C@@H](CC(N)=O)C(=O)N[C@@H](CCC(N)=O)C(=O)N1CCC[C@H]1C(=O)N[C@@H](CCCNC(=N)N)C(=O)N[C@@H](CCC(=O)O)C(=O)N1CCC[C@H]1C(=O)N[C@@H](Cc1c[nH]cn1)C(=O)N1CCC[C@H]1C(=O)N[C@@H](CCCNC(=N)N)C(=O)N[C@@H](CC(C)C)C(=O)O` [Peptide K2N9E13] ({Orn(α-tetramethylguanidino)}-KNRPVYINQPREPHPRL-OH; C-terminus assumed): the “MIC, TSB” value is greater than 64 µM; the “MIC, LB” value was greater than 64 µM; the “MIC, RPMI/Serum” value was greater than 64 µM.

Turning to `CC(C)C[C@H](NC(=O)[C@H](CCCNC(=N)N)NC(=O)[C@@H]1CCCN1C(=O)[C@H](Cc1c[nH]cn1)NC(=O)[C@@H]1CCCN1C(=O)[C@H](CO)NC(=O)[C@H](CCCNC(=N)N)NC(=O)[C@@H]1CCCN1C(=O)[C@@H](NC(=O)[C@H](CC(N)=O)NC(=O)[C@H](Cc1ccc(O)cc1)NC(=O)[C@H](Cc1ccc(O)cc1)NC(=O)[C@@H](NC(=O)[C@@H]1CCCN1C(=O)[C@H](CCCNC(=N)N)NC(=O)[C@H](CCCCN)NC(=O)[C@H](CC(N)=O)NC(=O)[C@H](CCCN)N=C(N(C)C)N(C)C)C(C)C)[C@@H](C)O)C(=O)O` [Peptide K3Y8N9T10S13] ({Orn(α-tetramethylguanidino)}-NKRPVYYNTPRSPHPRL-OH; C-terminus assumed), the “MIC, TSB” value was greater than 64 µM; the “MIC, LB” value is greater than 64 µM; the “MIC, RPMI/Serum” value is greater than 64 µM.

Consider `CC[C@H](C)[C@H](NC(=O)[C@H](Cc1ccc(O)cc1)NC(=O)[C@H](CCCCN)NC(=O)[C@@H]1CCCN1C(=O)[C@H](CCCNC(=N)N)NC(=O)[C@H](CC(N)=O)NC(=O)[C@H](CC(N)=O)NC(=O)[C@H](CCCN)N=C(N(C)C)N(C)C)C(=O)N1CCC[C@H]1C(=O)N[C@@H](CCSC)C(=O)N1CCC[C@H]1C(=O)N[C@@H](CCCNC(=N)N)C(=O)N1CCC[C@H]1C(=O)N1CCC[C@H]1C(=O)N[C@@H](Cc1c[nH]cn1)C(=O)N1CCC[C@H]1C(=O)N[C@@H](CCCNC(=N)N)C(=O)N[C@@H](CC(C)C)C(=O)O` [Peptide K6M10] ({Orn(α-tetramethylguanidino)}-NNRPKYIPMPRPPHPRL-OH; C-terminus assumed), for which the “MIC, TSB” value is 0.5 µM (≈ 1.15 µg/mL); the “MIC, LB” value came to 8 µM (≈ 18.4 µg/mL); the “MIC, RPMI/Serum” value worked out at 1 µM (≈ 2.3 µg/mL). For the same compound, the “MIC values relative to wt Api” value (E. coli BL21, peptides from depletion selection) is “comparable to those of wt Api”.

For the compound `CC(C)C[C@H](NC(=O)[C@H](CCCNC(=N)N)NC(=O)[C@H](CC(C)C)NC(=O)[C@H](Cc1c[nH]cn1)NC(=O)[C@@H]1CCCN1C(=O)CNC(=O)[C@H](CC(C)C)NC(=O)[C@@H]1CCCN1C(=O)[C@H](CCC(N)=O)NC(=O)[C@@H]1CCCN1C(=O)[C@H](CC(C)C)NC(=O)[C@H](Cc1ccc(O)cc1)NC(=O)[C@@H](NC(=O)[C@@H]1CCCN1C(=O)[C@H](CCCNC(=N)N)NC(=O)[C@H](CC(N)=O)NC(=O)[C@H](CC(N)=O)NC(=O)[C@H](CCCN)N=C(N(C)C)N(C)C)C(C)C)C(=O)O` [Peptide L8L12G13L16] ({Orn(α-tetramethylguanidino)}-NNRPVYLPQPLGPHLRL-OH; C-terminus assumed), the “MIC, TSB” value was greater than 64 µM; the “MIC, LB” value is greater than 64 µM; the “MIC, RPMI/Serum” value was greater than 64 µM.

With `CC[C@H](C)[C@H](NC(=O)[C@H](Cc1ccc(O)cc1)NC(=O)[C@H](CCSC)NC(=O)[C@@H]1CCCN1C(=O)[C@H](CCCNC(=N)N)NC(=O)[C@H](CC(N)=O)NC(=O)[C@H](CC(N)=O)NC(=O)[C@H](CCCN)N=C(N(C)C)N(C)C)C(=O)N[C@@H](C)C(=O)N[C@@H](CCC(N)=O)C(=O)N1CCC[C@H]1C(=O)N[C@@H](CCCNC(=N)N)C(=O)N1CCC[C@H]1C(=O)N[C@@H](Cc1ccc(O)cc1)C(=O)N[C@@H](Cc1c[nH]cn1)C(=O)N1CCC[C@H]1C(=O)N[C@@H](CCCNC(=N)N)C(=O)N[C@@H](CC(C)C)C(=O)O` [Peptide M6A9Y14] ({Orn(α-tetramethylguanidino)}-NNRPMYIAQPRPYHPRL-OH; C-terminus assumed), the “MIC, TSB” value is 16 µM (≈ 37.4 µg/mL); the “MIC, LB” value was greater than 64 µM; the “MIC, RPMI/Serum” value turned out to be 16 µM (≈ 37.4 µg/mL).
